In PMC8950868, “Identifying Human PTP1B Enzyme Inhibitors from Marine Natural Products: Perspectives for Developing of Novel Insulin-Mimetic Drugs” (Pharmaceuticals, 2022):

Legend:
PTP1B = target: T1, PTP1B (Homo sapiens, UniProt P18031); assay: Determination of the mechanism of inhibition on PTP1B (KM, Vmax, Lineweaver-Burk, secondary plots); type: biochemical; details: for α: Ki′ = αKi; for Ki′: from 1/Vmax versus inhibitor concentration (Ki′ = αKi); for Ki: from KM/Vmax versus inhibitor concentration
T1 construct: human recombinant PTP1B (1–302)
T1 sequence (P18031 1-302): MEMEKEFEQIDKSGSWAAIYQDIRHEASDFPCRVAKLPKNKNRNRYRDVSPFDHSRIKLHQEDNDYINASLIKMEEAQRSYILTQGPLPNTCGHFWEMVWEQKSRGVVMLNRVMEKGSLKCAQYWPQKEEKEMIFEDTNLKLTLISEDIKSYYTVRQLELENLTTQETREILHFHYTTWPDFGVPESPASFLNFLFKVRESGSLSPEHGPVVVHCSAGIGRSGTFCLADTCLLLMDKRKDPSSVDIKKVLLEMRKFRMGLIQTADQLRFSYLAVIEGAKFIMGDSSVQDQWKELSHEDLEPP
Protocol: The inhibitory mechanism of tested compounds was determined studying the dependence between the main kinetics parameters (KM and Vmax) and the inhibitors concentrations. Briefly, KM and Vmax values were calculated measuring the hydrolysis rate of PTP1B in the absence/presence of different inhibitor concentrations, while increasing substrate content. Data obtained were fitted using Michaelis-Menten equation and a non-linear fitting software. Then, data were analysed using the double reciprocal plot (Lineweaver-Burk method).
Figure 5 Kinetic characterization of 3 as PTP1B inhibitor. […] Dependence of main kinetic parameters KM (A) and Vmax (B) from the concentration of compound 3. Lineweaver-Burk plot (C). Bars represent the standard deviations of the means from at least three independent measurements (if not present, they are within the symbol’s size). […] E, free enzyme; S, substrate; ES, enzyme-substrate complex; EI, enzyme-inhibitor complex; ESI the enzyme-substrate-inhibitory ternary complex; Ks, dissociation constant of the enzyme-substrate complex; Ki, dissociation constant of EI complex; αKs and αKi, dissociation constant of enzyme-substrate-inhibitor complex (α > 1).
Figure 6 Secondary plots. KM/Vmax (A) and 1/Vmax (B) versus the inhibitor concentration, respectively. The intercept of straight line with the “x” axis in Panel A, represents the Ki value, while the intercept of straight line with the “x” axis in Panel B represents the Ki′ value (Ki′ = αKi).
Figure 7 Kinetic characterization of 8a as PTP1B inhibitor. […] Dependence of KM (A) and Vmax (B) from the inhibitor concentration. Lineweaver-Burk graph (C). Bars represent the standard deviations of the means from at least three independent measurements (if not present, they are within the symbol’s size). Secondary plots: KM/Vmax (D) and 1/Vmax (E) versus the inhibitor concentration, respectively. The intercept of straight line with the “x” axis in Figure D represents the Ki value, while the intercept of straight line with the “x” axis in Figure E represents the Ki′ value (Ki′ = αKi).

GST–PTP1B fusion protein = test system: GST–PTP1B fusion protein; set-up: method as in PMID 27064611; details: different pH value, read-out: IC50 on PTP1B previously determined; cited from earlier work
[1] = target: T2, human recombinant PTP1B (1–302) (Homo sapiens, UniProt P18031); assay: PTP1B enzymatic assay (p-NPP hydrolysis; preliminary screening and IC50); type: biochemical; details: for Effect on PTP1B activity in preliminary screening: 20 µM of each compound, 30 min; for IC50: 2.5 mM p-NPP, pH 7.0, 37 °C, mean ± SD (n = 3), read-out: IC50 values determined on PTP1B
T2 construct: human recombinant PTP1B (1–302)
T2 sequence (P18031 1-302): T1 sequence (P18031 1-302)
Protocol: We performed enzymatic assays as previously described. For each assay, an aliquot of human recombinant PTP1B (1–302) was added in the assay buffer (0.075 M β,β-dimethylglutarate pH 7.0 containing 1 mM EDTA, 0.1 mM DTT and a p-nitrophenylphosphate (p-NPP) (Chemcruz, Santa Cruz Biotechnology (Santa Cruz, CA, USA)). The reactions were performed at 37 °C in a final volume of 1 mL. After adequate time (30 min) of incubation, the reactions were stopped adding 2 mL of 0.1 M KOH in each sample. The released amount of p-nitrophenol, product of the reaction, was determined by measuring the absorbance at 400 nm in a 1 cm pathlength cuvette.
The IC50 value of compounds against PTP1B was determined by measuring the hydrolysis rate of the enzyme in the presence of a fixed substrate concentration (2.5 mM p-NPP) and increasing inhibitor concentrations (generally 14–16 different concentrations). Each test was carried out in triplicate. Experimental data were normalized respect to control samples and then fitted using a non-linear fitting software, using the following equation: Vi/V0=Max−Min/1+x/IC50^slope+Min where the Vi/V0 value represents the relative activity calculated in presence of each inhibitor concentration; the maximum and minimum value of the activity are represented by “Max” and “Min”, respectively; “x” is the concentration of the inhibitor; IC50 is the inhibitor concentration able to decrease the enzymatic activity up to 50%; “slope” represents the slope of the curve in the transition zone.
Figure 2 Preliminary screening assay on PTP1B. All assays were started by diluting an aliquot of PTP1B in the assay solution containing substrate alone (control test) or substrate and an aliquot of each compound (20 µM, final concentration). After 30 min, the reactions were stopped by adding a concentrated KOH solution. The enzyme activity was determined by measuring the amount of p-nitrophenol that was released in each sample using a spectrophotometer. Data obtained were normalized respect to control sample. […] Statistical analysis was carried out using one way ANOVA followed by Tukey’s HSD test for pairwise comparisons. Statistics have been drawn on raw data and compare samples to control (Ctr). * p < 0.05; ** p < 0.01.
Figure 3 Determination of the IC50 values with compounds 3, 8a, 8b, 9a and 9b. An aliquot of PTP1B enzyme was diluted in the presence of increasing concentration of the compounds. The activity of PTP1B was determined by measuring the absorbance of the sample at 400 nm, using a spectrophotometer. Data obtained were normalized respect to the control sample and analysed using a non-linear fitting software.

Inhibitory mechanism on PTP1B (PTP1B) | α (PTP1B) | Ki′ (PTP1B) [µM] | Ki (PTP1B) [µM] | Effect on PTP1B activity in preliminary screening [1] | IC50 [1] [µM] | SMILES | IC50 (GST–PTP1B fusion protein) [µM]
linear mixed-type inhibitor | 1.4 ± 0.2 | 9.4 ± 0.6 | 6.6 ± 0.8 | reducing PTP1B activity | 6.7 ± 3.3 | CCCCCCCCCCCCCCC(OP(=O)(O)O)C(O)CCCO (stereo not shown) [Compound 3] | 24 ± 7
mixed type inhibitor | 1.6 ± 0.1 | 5.4 ± 0.2 | 3.3 ± 0.4 | reducing PTP1B activity | 16 ± 2 | CCCCC[C@@H](OP(=O)(O)O)[C@@H](O)CC[C@H](CCCC)OC(C)=O (relative stereo) [Compound 8a] | –
